Where two headings read alike, the source gives them in different places. Numbered stars: 1 amine (or outer) side, 2 acyl side, 3 side chain; on linkers, the order of the positions; unused ones are H or OH. Bridge positions count the residues as written; N and C are the ends. Square brackets hold non-standard residues; d marks the D form. Peptide text beside a SMILES is read from it. I, II: the chains in the order shown. ξ: configuration not given here. Phe(4-tBu) = CC(C)(C)c1ccc(C[C@H](N)C(=O)O)cc1; Diglycolyl = O=C(COCC(=O)[*:2])[*:1]; NMeR = CN[C@@H](CCCNC(=N)N)C(=O)O; β3hE = N[C@@H](CCC(=O)O)CC(=O)O; Thr(3ξ) = CC(O)[C@H](N)C(=O)O; X1 = O=C(c1ccccc1C[*:2])[*:1]; Pen = CC(C)(S)[C@H](N)C(=O)O
Columns and labels:
[1] = tested on: gut homing of ATRA+ T cells; experiment: Gut homing of cultured T cells transferred into recipient mice; format: in vivo, C57BL/6 mice
Procedure: Purified CD3+ cells were isolated from B6.SJL (CD45.1+) donor mice and cultured in the presence of anti-CD3/anti-CD28 beads and IL-2 to induce T cell activation and proliferation. In some culture conditions, Compound A and/or ATRA were added. To track the cells in vivo, ATRA− and ATRA+ cells were labeled with CMFDA and CTFR respectively. These labeled cells were then co-injected into C57BL/6 (CD45.2+) recipient mice.
The proportion of ATRA− and ATRA+ cells in spleen, Peyer's patches (PP), and ileal lamina propria (LP) of the recipient mice was measured by flow cytometry to evaluate cell homing.
Thirty-eight (38) C57BL/6 (CD45.2+) recipient mice were acclimated for 9 weeks before the start of the study (Day 0) and were 16 weeks old at cell transfer (Day 5). On Day 4, recipient mice were assigned to groups in a balanced manner to achieve similar average weight across the groups.
On Day 5, after removal of CD3/CD28 beads from cell cultures with a magnet, ATRA+ cells were labeled with CFTR, and ATRA− cells were labeled with CMFDA. Cells from each culture condition were then counted. For each group, ATRA− cells and cells from one of the ATRA+ culture conditions were mixed at a 1:1 ratio per Table 8 below and transferred into the recipient mice. Approximately 13 million of each type of cells (total of 26 million cells) were injected i.v. into each mouse.
Mice in Group 2 were dosed with anti-VLA-4 once, on Day 5 prior to cell transfer. Anti-VLA-4 (PS/2) antibodies were purchased from BioXCell and were kept at −80 C until needed. Antibodies were diluted to a final concentration of 1 mg/mL with sterile PBS and dosed at 10 mg/kg, intraperitoneally. No in vivo treatment was administered to other groups.
Twenty (20) to 22 hours after cell transfer all mice were euthanized, and their blood, spleen, Peyer's patches and small intestines collected. Approximately 50 μL of plasma was isolated from the blood of each mouse and sored on dry ince until further analysis.
Cells from the following tissues were isolated from each mouse for flow cytometric analysis: • Spleen • Peyer's patches • Ileal lamina propria Isolated cells were counted and stained with anti-CD45.1 antibodies and live/dead stain. Cells were then acquired for flow cytometric analysis and the proportions of CD45.1+, ATRA+ and ATRA− cells in each tissue determined.

[2] = Plasma and tissue exposure after single PO administration; format: in vivo, C57BL/6 female mice; details: single PO 30 mg/kg
Procedure: Twelve treatment-naïve C57BL/6 female mice were assigned to the study. […] At 1, 3, and 6 hours (h) post-dose, 4 mice/time point were subjected to terminal bleeds and euthanized; Peyer's patches (PPs), mesenteric lymph nodes (MLNs), small intestine, and colon were collected from each animal. The blood was processed to plasma; plasma and the tissue samples were submitted for pharmacokinetic (PK) analysis of Compound A levels using a qualified liquid chromatography tandem mass spectrometry (LC-MS/MS) method.
Processed plasma and tissue samples were analyzed on an AB/MDS Sciex API 4000 mass spectrometer. Positive ions were monitored in the multiple reaction-monitoring (MRM) mode. Quantitation was by peak area ratio.
PK data analysis was carried out using non-compartmental analysis (NCA) in Phoenix WinNonlin 8.1 (Certara USA Inc.). All concentration values below the lower limit of quantitation were treated as zero for the pharmacokinetic analysis. The maximum concentration (Cmax) and the apparent time to Cmax (tmax) were obtained by observation. The area under the concentration versus time curve (AUC) was obtained by the linear trapezoidal method. All concentration data and PK parameters were reported at up to three significant figures if the value was greater than one, and at up to three decimal places if the value was less than one. Time parameters were reported at up to two decimal places. The concentration data were plotted using Excel (Microsoft).

[3] = Oral bioavailability in mice; details: mouse, in vivo
[4] = biological target: T1, α4β7 / MAdCAM1 (Homo sapiens, UniProt P13612+P26010); experiment: Adhesion of CD4+ T memory cells to MAdCAM1; format: cell-based
T1 construct: endogenous in cells
Procedure: After incubation, cells were washed extensively to remove excess peptide. For each reaction, an aliquot of cells was stained for α4β7 expression, while a separate aliquot was tested for adhesion to MAdCAM1.

[5] = biological target: T2, α4β7 integrin (Homo sapiens, UniProt P13612+P26010); experiment: Inhibition of MAdCAM1-mediated CD4+ T cell proliferation (plate bound anti-CD3 + MAdCAM1); format: cell-based
T2 construct: endogenous in cells; host or cells: primary human CD4+ T cells enriched from PBMCs of healthy donors
Procedure: PBMCs were purified from healthy human donors and enrichment of CD4+ T cells was performed. […] Phenotype, distribution of T-helper (Th) subsets and % RO analyses were conducted by flow cytometry of freshly stained live samples.

T2 sequence (P13612 34-1032): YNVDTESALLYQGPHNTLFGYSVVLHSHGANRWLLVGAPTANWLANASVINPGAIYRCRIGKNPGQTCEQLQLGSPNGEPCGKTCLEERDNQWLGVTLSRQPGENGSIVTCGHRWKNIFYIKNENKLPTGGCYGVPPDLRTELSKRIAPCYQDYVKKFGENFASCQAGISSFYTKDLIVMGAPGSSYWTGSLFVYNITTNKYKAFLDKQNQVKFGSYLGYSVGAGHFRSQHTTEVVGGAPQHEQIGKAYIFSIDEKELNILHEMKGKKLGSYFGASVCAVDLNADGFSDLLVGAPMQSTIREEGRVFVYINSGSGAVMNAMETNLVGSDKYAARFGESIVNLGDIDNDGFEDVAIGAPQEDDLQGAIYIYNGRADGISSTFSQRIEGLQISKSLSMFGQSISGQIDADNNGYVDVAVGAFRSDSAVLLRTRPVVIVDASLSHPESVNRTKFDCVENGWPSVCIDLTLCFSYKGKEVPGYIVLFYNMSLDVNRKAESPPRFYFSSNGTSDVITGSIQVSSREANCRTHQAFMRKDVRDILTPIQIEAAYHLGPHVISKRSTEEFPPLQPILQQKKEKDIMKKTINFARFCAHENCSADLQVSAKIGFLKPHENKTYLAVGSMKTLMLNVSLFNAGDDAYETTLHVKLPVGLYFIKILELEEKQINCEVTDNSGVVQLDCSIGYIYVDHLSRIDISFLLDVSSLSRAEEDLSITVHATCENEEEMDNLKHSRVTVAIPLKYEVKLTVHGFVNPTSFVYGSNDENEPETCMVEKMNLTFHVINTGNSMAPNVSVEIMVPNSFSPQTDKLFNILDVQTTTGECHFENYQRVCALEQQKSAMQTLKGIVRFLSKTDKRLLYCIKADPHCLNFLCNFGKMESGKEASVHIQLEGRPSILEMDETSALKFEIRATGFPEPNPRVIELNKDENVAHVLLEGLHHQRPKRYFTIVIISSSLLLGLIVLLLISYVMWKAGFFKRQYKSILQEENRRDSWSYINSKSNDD
T2 sequence (P26010 20-798): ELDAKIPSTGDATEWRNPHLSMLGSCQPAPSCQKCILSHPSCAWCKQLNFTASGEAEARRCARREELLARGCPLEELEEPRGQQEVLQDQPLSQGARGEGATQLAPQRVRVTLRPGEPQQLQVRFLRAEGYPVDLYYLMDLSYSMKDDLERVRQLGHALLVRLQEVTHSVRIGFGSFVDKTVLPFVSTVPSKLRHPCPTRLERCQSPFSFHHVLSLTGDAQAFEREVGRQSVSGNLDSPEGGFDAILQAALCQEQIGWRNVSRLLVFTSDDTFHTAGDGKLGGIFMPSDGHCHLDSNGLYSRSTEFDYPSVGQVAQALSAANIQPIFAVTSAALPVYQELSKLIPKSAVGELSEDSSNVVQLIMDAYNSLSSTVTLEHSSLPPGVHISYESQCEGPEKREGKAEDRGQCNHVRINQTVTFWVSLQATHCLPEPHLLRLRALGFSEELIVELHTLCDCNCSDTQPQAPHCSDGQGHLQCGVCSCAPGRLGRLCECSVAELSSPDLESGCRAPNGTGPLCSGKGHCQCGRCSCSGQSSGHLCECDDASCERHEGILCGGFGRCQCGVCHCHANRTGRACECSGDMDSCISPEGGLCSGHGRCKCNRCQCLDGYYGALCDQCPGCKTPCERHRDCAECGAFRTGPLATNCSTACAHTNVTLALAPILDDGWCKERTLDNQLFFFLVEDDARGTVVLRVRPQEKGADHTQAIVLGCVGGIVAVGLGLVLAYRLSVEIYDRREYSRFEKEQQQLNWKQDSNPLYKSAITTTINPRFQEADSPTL
T1 sequence (P13612 34-1032): as the sequence (P13612 34-1032) above
T1 sequence (P26010 20-798): as the sequence (P26010 20-798) above

SMILES: CC(C)C[C@@H]1NC(=O)[C@H](C(C)O)NC(=O)[C@H](CC(=O)O)NC(=O)[C@H](CO)NC(=O)[C@H](CCCNC(=N)N)N(C)C(=O)c2ccccc2CSC(C)(C)[C@@H](C(=O)N[C@@H](Cc2ccc(C(C)(C)C)cc2)C(=O)N[C@@H](CCC(=O)O)CC(=O)N[C@H](CCCCNC(=O)COCC(=O)NCCCC[C@@H](NC(=O)C[C@H](CCC(=O)O)NC(=O)[C@H](Cc2ccc(C(C)(C)C)cc2)NC(=O)[C@H]2NC(=O)[C@H](CC(C)C)NC(=O)[C@H](C(C)O)NC(=O)[C@H](CC(=O)O)NC(=O)[C@H](CO)NC(=O)[C@H](CCCNC(=N)N)N(C)C(=O)c3ccccc3CSC2(C)C)C(=O)O)C(=O)O)NC1=O (stereo partly drawn) [Compound A, ((2-Benzyl)-(N-Me-R)-Ser-Asp-Thr-Leu-Pen-(Phe(4-tBlu))-(β-homo-Glu)-(D-Lys)-OH)2 (SEQ ID NO: 5) and linker-DIG diglycolic acid] (I: [NMeR]SD[Thr(3ξ)]L[Pen][Phe(4-tBu)][β3hE][dK]-OH / II: [NMeR]SD[Thr(3ξ)]L[Pen][Phe(4-tBu)][β3hE][dK]-OH; linker I:9-II:9 via Diglycolyl; linker I:N-I:6, II:N-II:6 via X1)
- ATRA+/10^3 live cells +/− SD in Ileal LP ([1]; cells cultured with 100 nM): 4.3 +/− 1.7 /10^3 live cells
- ATRA+/10^3 live cells +/− SD in Peyer's patches ([1]; cells cultured with 100 nM): 0.3 +/− 0.2 /10^3 live cells
- ATRA+/10^3 live cells +/− SD in spleen ([1]; cells cultured with 100 nM): 2.9 +/− 0.3 /10^3 live cells
- ATRA−/10^3 live cells +/− SD in Ileal LP ([1]; cells cultured with 100 nM): 0.3 +/− 0.1 /10^3 live cells
- ATRA−/10^3 live cells +/− SD in Peyer's patches ([1]; cells cultured with 100 nM): 0.2 +/− 0.2 /10^3 live cells
- ATRA−/10^3 live cells +/− SD in spleen ([1]; cells cultured with 100 nM): 9.0 +/− 1.1 /10^3 live cells
- CD45.1+ cells/10^3 live cells +/− SD, Ileal LP ([1]; cells cultured with 100 nM): 4.6 +/− 1.8 /10^3 live cells
- CD45.1+ cells/10^3 live cells +/− SD, Peyer's patches ([1]; cells cultured with 100 nM): 0.6 +/− 0.3 /10^3 live cells
- CD45.1+ cells/10^3 live cells +/− SD, Spleen ([1]; cells cultured with 100 nM): 12.1 +/− 1.4 /10^3 live cells
- Total number of cells isolated (×10^3), Ileal LP ([1]; cells cultured with 100 nM): 2005 +/− 1276 ×10^3
- Total number of cells isolated (×10^3), Peyer's patches ([1]; cells cultured with 100 nM): 673 +/− 295 ×10^3
- Total number of cells isolated (×10^3), Spleen ([1]; cells cultured with 100 nM): 100650 +/− 10215 ×10^3
- ATRA+/10^3 live cells +/− SD in Ileal LP ([1]; cells cultured with 1000 nM): 3.5 +/− 1.8 /10^3 live cells
- ATRA+/10^3 live cells +/− SD in Peyer's patches ([1]; cells cultured with 1000 nM): 0.3 +/− 0.1 /10^3 live cells
- ATRA+/10^3 live cells +/− SD in spleen ([1]; cells cultured with 1000 nM): 2.4 +/− 0.5 /10^3 live cells
- ATRA−/10^3 live cells +/− SD in Ileal LP ([1]; cells cultured with 1000 nM): 0.2 +/− 0.1 /10^3 live cells
- ATRA−/10^3 live cells +/− SD in Peyer's patches ([1]; cells cultured with 1000 nM): 0.2 +/− 0.1 /10^3 live cells
- ATRA−/10^3 live cells +/− SD in spleen ([1]; cells cultured with 1000 nM): 8.0 +/− 1.4 /10^3 live cells
- CD45.1+ cells/10^3 live cells +/− SD, Ileal LP ([1]; cells cultured with 1000 nM): 3.8 +/− 1.7 /10^3 live cells
- CD45.1+ cells/10^3 live cells +/− SD, Peyer's patches ([1]; cells cultured with 1000 nM): 0.6 +/− 0.1 /10^3 live cells
- CD45.1+ cells/10^3 live cells +/− SD, Spleen ([1]; cells cultured with 1000 nM): 10.6 +/− 1.9 /10^3 live cells
- Total number of cells isolated (×10^3), Ileal LP ([1]; cells cultured with 1000 nM): 1730 +/− 1023 ×10^3
- Total number of cells isolated (×10^3), Peyer's patches ([1]; cells cultured with 1000 nM): 775 +/− 360 ×10^3
- Total number of cells isolated (×10^3), Spleen ([1]; cells cultured with 1000 nM): 90617 +/− 13418 ×10^3
- Cmax ([2]; female, C57BL/6, mouse, mesenteric lymph nodes, read-out: mean Cmax, MLNs): 56.8 ng/g
- AUC ([2]; female, C57BL/6, mouse, plasma): 0.0954 µg·h/mL
- Cmax ([2]; female, C57BL/6, mouse, plasma, read-out: mean Cmax, plasma): 0.019 µg/mL
- Cmax ([2]; female, C57BL/6, mouse, small intestine, read-out: mean Cmax, small intestine): 13300 ng/g
- mean AUC, MLNs [2]: 226 ng·h/g
- mean AUC, PPs [2]: 37900 ng·h/g
- mean AUC, colon [2]: 15700 ng·h/g
- mean AUC, small intestine [2]: 48600 ng·h/g
- mean Cmax in PPs and colon relative to small intestine [2]: approximately two-fold lower
- time of peak exposure, MLNs [2]: 1 h
- time of peak exposure, PPs [2]: 1 h
- time of peak exposure, colon [2]: 6 h
- time of peak exposure, plasma [2]: 3 h
- time of peak exposure, small intestine [2]: 1 h
- bioavailability [3]: < 1%
- Complete Mayo Score, Adapted Mayo Score, and/or Partial Mayo Score vs placebo (450 mg BID or 150 mg BID): statistically significant improvement
- safety of treatment (in vivo): safe
- Maximal adhesion reduction (%) ([4]; Donor 1, normalized to no-peptide control): 38%
- Maximal adhesion reduction (%) ([4]; Donor 2, normalized to no-peptide control): 36%
- Maximal adhesion reduction (%) ([4]; Mean of two donors): 37%
- R-squared, α4β7 expression reduction vs adhesion reduction ([4]; first donor): 0.968
- R squared, α4β7 expression reduction vs adhesion reduction ([4]; second donor): 0.940
- IC50 [5]: 4.4 nM
- IC50 ([5]; Average, read-out: IC50): 3.5 nM
- inhibition of MAdCAM1-mediated proliferation of CD4+ T-cells ([5]; Compound A 1 uM, inactive analog 1 uM, vedolizumab 500 ng/mL, three days): completely abolished
- IC50 ([5]; Donor 7, read-out: IC50): 1.6 nM
- IC50 ([5]; Donor 8, read-out: IC50): 3.7 nM
- IC50 ([5]; Donor 9, read-out: IC50): 5.2 nM
- IC50 ([5]; Donor 11, read-out: IC50): 8 nM

From patent US20230063321A1, “Methods for Treating Inflammatory Bowel Diseases with alpha4beta7 Integrin Antagonists” (Protagonist Therapeutics, Inc., priority 2020, published 2023)
